Reference: ChEMBL document CHEMBL4004849, “Tetrazolylmethyl quinolines: Design, docking studies, synthesis, anticancer and antifungal analyses” (2017)
Calls of active or inactive are those of the source. No cut-off for these calls is given here.

What was measured:
Assay type in all cases: functional
RXF 393 = assay: Growth inhibition of human RXF393 cells at 10^-5 M incubated for 48 hrs by sulforhodamine B assay relative to control
Candida albicans = assay: Antifungal activity against Candida albicans at 100 ug/ml by disc diffusion method; details: read-out: IZ
DU-145 = assay: Growth inhibition of human DU145 cells at 10^-5 M incubated for 48 hrs by sulforhodamine B assay relative to control
SN12C = assay: Growth inhibition of human SN12C cells at 10^-5 M incubated for 48 hrs by sulforhodamine B assay relative to control
IGROV-1 = assay: Growth inhibition of human IGROV1 cells at 10^-5 M incubated for 48 hrs by sulforhodamine B assay relative to control
UACC-62 = assay: Growth inhibition of human UACC62 cells at 10^-5 M incubated for 48 hrs by sulforhodamine B assay relative to control
SW-620 = assay: Growth inhibition of human SW620 cells at 10^-5 M incubated for 48 hrs by sulforhodamine B assay relative to control
NCI-H23 = assay: Growth inhibition of human NCI-H23 cells at 10^-5 M incubated for 48 hrs by sulforhodamine B assay relative to control
K562 = assay: Growth inhibition of human K562 cells at 10^-5 M incubated for 48 hrs by sulforhodamine B assay relative to control
ACHN = assay: Growth inhibition of human ACHN cells at 10^-5 M incubated for 48 hrs by sulforhodamine B assay relative to control
NCI-H460 = assay: Growth inhibition of human NCI-H460 cells at 10^-5 M incubated for 48 hrs by sulforhodamine B assay relative to control
TK-10 = assay: Growth inhibition of human TK10 cells at 10^-5 M incubated for 48 hrs by sulforhodamine B assay relative to control
OVCAR-8 = assay: Growth inhibition of human OVCAR8 cells at 10^-5 M incubated for 48 hrs by sulforhodamine B assay relative to control

Compound	growth inhibition (GI) (RXF 393)	zone of inhibition at 100 µg/mL (Candida albicans) [mm]	growth inhibition (GI) (DU-145)	growth inhibition (GI) (SN12C)	growth inhibition (GI) (IGROV-1)	growth inhibition (GI) (UACC-62)	growth inhibition (GI) (SW-620)	growth inhibition (GI) (NCI-H23)	growth inhibition (GI) (K562)	growth inhibition (GI) (ACHN)	growth inhibition (GI) (NCI-H460)	growth inhibition (GI) (TK-10)	growth inhibition (GI) (OVCAR-8)	also measured
Fc1ccc2nc(Cl)c(Cn3nnc(Cc4ccccc4)n3)cc2c1	Active	12	Active	Active	Active	Active	Active	Active	Active	Active	Active	Active	Active	
Clc1nc2ccc(Br)cc2cc1Cn1nnnc1CSc1ccccc1	Active	12	Active	Active	Active	Active	Active	Active	Active	Active	Active	Active	Active	
COc1ccc2nc(Cl)c(Cn3nnc(Cc4ccccc4)n3)cc2c1		16												inhibition of growth at 10 µM (RXF 393; RXF 393, 48 h, read-out: GI): 39.8%; inhibition of growth at 10 µM (DU-145; DU-145, 48 h, read-out: GI): 38.4%; inhibition of growth at 10 µM (SN12C; read-out: GI): 42.7%; inhibition of growth at 10 µM (IGROV-1; IGROV-1, 48 h, read-out: GI): 56.8%; inhibition of growth at 10 µM (UACC-62; UACC-62, 48 h, read-out: GI): 64.9%; inhibition of growth at 10 µM (SW-620; SW-620, 48 h, read-out: GI): 33.6%; inhibition of growth at 10 µM (NCI-H23; NCI-H23, 48 h, read-out: GI): 67.5%; inhibition of growth at 10 µM (K562; K562, 48 h, read-out: GI): 67.1%; inhibition of growth at 10 µM (ACHN; read-out: GI): 58.5%; inhibition of growth at 10 µM (NCI-H460; NCI-H460, 48 h, read-out: GI): 60%; inhibition of growth at 10 µM (TK-10; TK-10, 48 h, read-out: GI): 65.1%; inhibition of growth at 10 µM (OVCAR-8; OVCAR-8, 48 h, read-out: GI): 59.5%
Fc1ccc2nc(Cl)c(Cn3nnnc3CSc3ccccc3)cc2c1	Active	13	Active	Active	Active	Active	Active	Active	Active	Active	Active	Active	Active	
Clc1nc2ccc(Br)cc2cc1Cn1nnnc1Cc1ccccc1	Active	16	Active	Active	Active	Active	Active	Active	Active	Active	Active	Active	Active	
Cc1ccc2nc(Cl)c(Cn3nnnc3CSc3ccccc3)cc2c1	Active	12	Active	Active	Active	Active	Active	Active	Active	Active	Active	Active	Active	
Clc1nc2ccccc2cc1Cn1nnnc1Cc1ccccc1	Active	10	Active	Active	Active	Active	Active	Active	Active	Active	Active	Active	Active	
Clc1nc2ccc(Br)cc2cc1Cn1nnc(Cc2ccccc2)n1	Active	10	Active	Active	Active	Active	Active	Active	Active	Active	Active	Active	Active	
